Patent US8563578B2, “Antitumor properties of NO modified protease inhibitors” (Onconox APS, priority 2008, dated 2013)

What was measured:
[1] = system: C6 rat astrocytoma; assay: Cell viability, C6 cells; format: cell-based; conditions: read-out: reduction of cell viability
Excerpt: (§1) Rat glioma C6 and human glioblastoma U251 cell lines were a kind gift from Dr. Pedro Tranque (Universidad de Castilla-La Mancha, Albacete, Spain), murine melanoma B 16, and human adenocarcinoma HeLa, were a kind gift from Dr. Sinisa Radulovic (Institute for Oncology and Radiology of Serbia, Belgrade, Serbia) while mouse fibrosarcoma L929 was obtained from the European Collection of Animal Cell Cultures (Salisbury, UK). Human breast HCC1419 and prostate PC-3 cells were purchased from LGC Promochem srl (Venezia, Italy). Primary mouse fibroblasts and rat astrocytes were prepared as described (Mijatovic et al. 2004). […]
(§2) Reduction of 3-4,5-dimethylthiazol-2-yl)-2,5-diphenyltetrazolium bromide (MTT) to formazan depends on mitochondrial activity of cultured cells, absorption of crystal violet dye correlates with the number of adherent, live cells, while the release of cytosolic lactate dehydrogenase (LDH) indicates the disruption of membrane integrity caracteristic for necrotic cells. […] Mitohondrial-dependent production of formazan and intensity of absorbed crystal violet by adherent cells were assessed by an automated microplate reader at 570 nm, while the pyruvate-mediated conversion of 2,4-dinitrophenylhydrazine into visible hydrazone precipitate in LDH assay was measured at 492 nm. […]
(§3) FIG. 2. […] Cell viability was then evaluated by CV test. […]

[2] = system: B16 mouse melanoma; assay: Cell viability, B16 cells; format: cell-based; conditions: read-out: reduction of cell viability
Excerpt: as §1, §2, §3

[3] = system: C6 cells; assay: Cell proliferation by CFSE staining, C6; format: cell-based, rat; conditions: 18.8 μM, 48 h, about 90% of control cells divided
Protocol: Rate of cell proliferation was verified by flow cytometric analysis of cells labelled with CFSE (Kang et al. 2005). CFSE dye is stable in cytoplasm more than 15 generations and the intensity of fluorescence decline after each division. Briefly, detached cells were stained with 1.5 μM CFSE for the 15 min at 37° C., washed 2 times, seeded in 6-well plates at 2×10^5 cells/well and then exposed to drugs. After 24 and 48 h of cultivation cells were trypsinized and washed 2 times. Finally, the cells were resuspended in PBS and analyzed by flow cytometry. Green fluorescence emission was measured with a FACSCalibur (BD, Heidelberg, Germany) and analyzed using CellQuest software.
FIG. 4. […] Results are calculated as indicated in materials and methods and presented as mean±SD from representative of three independent experiment (*p <0.05). […] After 24 h of cultivation without or with drugs, cells were stained with AO orange (B) or PI (C) and analyzed by flow cytometry. The data are presented as mean±SD from three independent experiments. *p<0.05, refers to untreated cultures. […] Cells were incubated with 18.8 μM of Sag or Saq-NO2 for 24 h. After that, the drugs were either removed or not from the cells and incubated for additional 24 h. Cell viability was determined by CV test after 24 and 48 h of incubation (right panels). […]

With CC(C)(C)NC(=O)[C@@H]1C[C@@H]2CCCC[C@@H]2CN1C[C@@H](O[N+](=O)[O-])[C@H](Cc1ccccc1)NC(=O)[C@H](CC(N)=O)NC(=O)c1ccc2ccccc2n1 [Saq-NO2, nitric ester of Saquinavir] as the compound, how does the cytotoxicity at 18.8 µM [1] read?
Its cytotoxicity at 18.8 µM is roughly 50%.

What about the cytotoxicity at 18.8 µM [2] of the same compound?
The cytotoxicity at 18.8 µM was roughly 70%.

And the “cells able to proliferate (divided)” value [3]?
Its value is “less than 10%”.
